No end group written: not given here.
Assays:
[1] = tested on: polyclonal antibodies specific for human PCSK9 aa 153-162 or aa 153-165; experiment: Binding ELISA: mimotopes coated on plates, detected by mouse sera raised against the original PCSK9 sequence; settings: mimotope coated at 1 μmol/mL; titer = serum dilution where 50% of ODmax is reached
Source text: FIGS. 1A and 1B show detection of PCSK9 mimotopes sequences by mouse sera containing polyclonal antibodies specific for human PCSK9 aa 153-162 or aa 153-165
The graphs display median titers from all mimotopes compared to the irrelevant negative control. As a positive control the original human PCSK9 sequence is included: aa 153-162 or aa 153-165. Mimotopes with values over 1:50.000 are considered as good candidates.
Mimotopes were coated on ELISA plates at a concentration of 1 μmol/mL. After blocking unspecific binding (1% BSA in PBS) appropriate dilutions of sera from mice injected with the original human PCSK9 sequence aa 153-162 or aa 153-165 (SEQ ID No. 3) were added and incubated for approximately 1 hour. Subsequently, detection with anti-mouse IgG antibodies was performed. ABTS was used as substrate. OD measurements were performed at 405 nm and titers were defined as the dilution of the serum where 50% of the ODmax is reached.

[2] = tested on: polyclonal antibodies in mouse sera raised against original PCSK9 sequence (aa 153-162 or aa 153-165); experiment: Competition ELISA: mimotope competes with the original PCSK9 sequence for binding of polyclonal antibodies in mouse sera; settings: 20 μg peptide incubated with sera; irrelevant peptide = 0% competition
Source text: FIGS. 2A and 2B show the ability of PCSK9 mimotopes to compete with the original PCSK9 sequence (aa 153-162 or aa 153-165) for binding polyclonal antibodies in mouse sera raised specifically against the latter.
All mimotopes are compared to the negative group (0% competition by an irrelevant peptide). As a positive control for each competition ELISA the original PCSK9 sequences were used (aa 153-162 or aa 153-165).
The graphs display the ability (in percent) of the mimotopes to compete with the original PCSK9 sequence (aa 153-162 or aa 153-165) for binding polyclonal antibodies raised against the latter.
20 μg of each indicated peptide was incubated with sera from mice injected with original PCSK9 sequence (aa 153-162 or aa 153-165: SEQ ID No. 2). Sera were then incubated on ELISA plates coated with the original PCSK9 sequence (aa 153-162 or aa 153-165: SEQ ID No. 2). Detection was performed with anti-mouse IgG antibodies, ABTS was used as a chromogenic substrate and optical density (OD) was measured at 405 nm.
Mimotopes diminishing >20% subsequent binding of the polyclonal antibodies from the sera to the original human PCSK9 epitope (aa 153-162 or 153-165: SEQ ID No. 3) coated on the ELISA plates were considered as competing mimotopes and as good candidates.

Balb/c mice = experiment: Total cholesterol assay in immunized mice; format: in vivo, mouse
Protocol: The peptides were conjugated via the heterobifunctional linker GMBS (4-Maleimidobutyric acid N-hydroxysuccinimide ester) to KLH (Keyhole Limpet Hemocyanin).
5 Balb/c mice were subcutaneously immunized. Mice had access to food and water ad libitum and were kept under a 12 h light/dark cycle. The age of mice at the beginning of experiments was 8 to 10 weeks.
Mice were injected four times in 2 week intervals with 15 μg of net peptide coupled to KLH and adsorbed to Alhydrogel as adjuvant in a volume of 1 ml in total.
Blood was taken approximately 2 weeks after the final injection.
Total cholesterol was measured with the LabAssay™ Cholesterol Kit (Wako).
For this purpose mice have been immunized with HPLC purified peptides coupled to KLH and formulated with an adjuvant (Alum) as vaccines (Sequence-KLH/Alum). In the first experiment, a direct comparison between the original PCSK9 sequence and the novel sequence […] has been performed. Here, mice have been immunized with irrelevant peptide vaccine (irrelevant peptide-KLH/Alum) as a negative control group, original PCSK9 sequence vaccine ([…]-KLH/Alum) and the novel sequence vaccine ([…]-KLH/Alum). The latter group ([…]-KLH/Alum) has been used not only to compare its functionality of the induced antibodies to the functionality of the antibodies generated using the original PCSK9 sequence vaccine ([…]-KLH/Alum), but also as a bridging group between different experiments.
Subsequently, a second experiment has been performed wherein mice have been immunized with irrelevant peptide as a negative control group and all the three novel sequences […], […] and […], all coupled to KLH and formulated as vaccines. As it has been already mentioned above, the mice immunized with the novel sequence ([…]-KLH/Alum) have been used as a bridging group between the experiments. In fact, the bridging group injected with the novel sequence ([…]-KLH/Alum) is behaving in a similar way in both experiments (FIGS. 5A, 5B, 6A and 6B) and most importantly, all three groups immunized with vaccines containing one of the sequences […], […] or […] behave in a very similar way in terms of reduction of plasma total cholesterol levels (FIGS. 6A and 6B).

Substance | Median Titer Binding ELISA (ODmax/2) [1] | % Competition compared to the related control group [2] [%] | further results
50 (SIPWNLERITPPK; Artificial Sequence, Mimotope) [compound 50] | 158,000 | 66 | –
51 (SIPWNLERITPPS; Artificial Sequence, Mimotope) [compound 51] | 149,000 | 66 | –
52 (SIPWNLERITPPL; Artificial Sequence, Mimotope) [compound 52] | 139,000 | 66 | –
53 (VIPWNLERLT; Artificial Sequence, Mimotope) [compound 53] | 191,000 | 54 | –
54 (VIPWNLERTT; Artificial Sequence, Mimotope) [compound 54] | 162,000 | 69 | –
55 (VIPWNLERIL; Artificial Sequence, Mimotope) [compound 55] | 173,000 | 49 | –
56 (VIPWNLERIQ; Artificial Sequence, Mimotope) [compound 56] | 166,000 | 47 | –
57 (SVPWNLERLT; Artificial Sequence, Mimotope) [compound 57] | 154,000 | 57 | –
58 (SVPWNLERTT; Artificial Sequence, Mimotope) [compound 58] | 116,000 | 73 | –
59 (SVPWNLERIL; Artificial Sequence, Mimotope) [compound 59] | 188,000 | 59 | –
60 (SVPWNLERIQ; Artificial Sequence, Mimotope) [compound 60] | 222,000 | 61 | –
61 (SQPWNLERLT; Artificial Sequence, Mimotope) [compound 61] | 200,000 | 69 | –
62 (SQPWNLERIL; Artificial Sequence, Mimotope) [compound 62] | 196,000 | 69 | –
63 (SQPWNLERIQ; Artificial Sequence, Mimotope) [compound 63] | 167,000 | 66 | –
64 (SIPWSLERLT; Artificial Sequence, Mimotope) [compound 64] | 164,000 | 46 | –
65 (SIPWSLERTT; Artificial Sequence, Mimotope) [compound 65] | 147,000 | 64 | –
66 (SIPWSLERIL; Artificial Sequence, Mimotope) [compound 66] | 199,000 | 46 | –
67 (SIPWSLERIQ; Artificial Sequence, Mimotope) [compound 67] | 223,000 | 44 | –
68 (VQPWSLERTL; Artificial Sequence, Mimotope) [compound 68] | 95,000 | 48 | –
69 (SQPWSLERTL; Artificial Sequence, Mimotope) [compound 69] | 98,000 | 53 | –
70 (SVPWNLEKLT; Artificial Sequence, Mimotope) [compound 70] | 47,000 | 11 | –
71 (VQPWNLERLQ; Artificial Sequence, Mimotope) [compound 71] | 184,000 | 72 | –
72 (VQPWSLERLL; Artificial Sequence, Mimotope) [compound 72] | 166,000 | 66 | –
73 (SVPWSLERLT; Artificial Sequence, Mimotope) [compound 73] | 251,000 | 74 | –
SIPWSLERIT-KLH/Alum: novel sequence vaccine: peptide SIPWSLERIT (SEQ ID No. 21) coupled to KLH and formulated with adjuvant Alum (also: coupled to KLH, site not given here) | – | – | levels of total cholesterol in comparison to the negative control group (Balb/c mice; FIGS. 5A and 5B, result in words): strongly reduce; % decrease of TC compared to the irrelevant (negative) control group (Balb/c mice; first experiment, FIG. 5B, mice immunized with Sequence-KLH/Alum): 35-40%; total cholesterol compared to the group injected with vaccine containing the original PCSK9 sequence SIPWNLERIT (Balb/c mice; result in words): significant reduction; total cholesterol compared to the group injected with vaccine containing the original PCSK9 sequence SIPWNLERIT (Balb/c mice; result in words, listed as SIPWSLERIT): significantly reduce
SVPWNLERIQ: vaccine containing novel sequence SVPWNLERIQ (SEQ ID No. 60), coupled to KLH and formulated as vaccine (also: coupled to KLH) | – | – | total cholesterol compared to the group injected with vaccine containing the original PCSK9 sequence SIPWNLERIT (Balb/c mice; result in words): significantly reduce
VIPWNLERIL: vaccine containing novel sequence VIPWNLERIL (SEQ ID No. 55), coupled to KLH and formulated as vaccine (also: coupled to KLH) | – | – | total cholesterol compared to the group injected with vaccine containing the original PCSK9 sequence SIPWNLERIT (Balb/c mice; result in words): significantly reduce

From patent US9999659B2, “Treatments using a peptide and/or vaccine” (AFFIRIS AG, priority 2012, dated 2018)
